Data as given in article PMC6394493 (Cancer Chemotherapy and Pharmacology, 2018).

Test: Safety assessment: adverse events
Assay type: in vivo, Japanese patients
Description: Safety assessments consisted of monitoring and recording of all AEs, including laboratory abnormalities and vital signs. DLTs were defined as an AE or a laboratory abnormality assessed as related to the study drug and occurring within the first 28 days of treatment (Cycle 1), as defined in Supplemental Table S1.

[1] = bid 400 mg N = 8, regardless of study drug relationship
[2] = qd 400 mg (n = 3), regardless of study drug relationship
[3] = qd 800 mg (n = 3), regardless of study drug relationship
[4] = qd 1000 mg (n = 8), regardless of study drug relationship

Cn1c(=O)n(-c2ccc(C(C)(C)C#N)cc2)c2c3cc(-c4cnc5ccccc5c4)ccc3ncc21 [BEZ235]
study drug-related SAE (1000 mg qd): grade 2 colitis | patients requiring dose reduction in Cycle 2 (1200 mg qd): two out of six | patients requiring dose interruption due to AEs (1400 mg qd): six | patients requiring dose reduction in early cycles (1400 mg qd): three | study drug-related SAE (1400 mg qd): grade 2 Pneumocystis jiroveci pneumonia | AEs Total, All grades [1]: 8 (100.0) n (%) | AEs Total, Grade ¾ [1]: 7 (87.5) n (%) | Alanine aminotransferase increased, All grades [1]: 4 (50.0) n (%) | Alanine aminotransferase increased, Grade ¾ [1]: 0 n (%) | Anxiety, All grades [1]: 2 (25.0) n (%) | Anxiety, Grade ¾ [1]: 0 n (%) | Aspartate aminotransferase increased, All grades [1]: 4 (50.0) n (%) | Aspartate aminotransferase increased, Grade ¾ [1]: 1 (12.5) n (%) | Blood alkaline phosphatase increased, All grades [1]: 2 (25.0) n (%) | Blood alkaline phosphatase increased, Grade ¾ [1]: 0 n (%) | Blood creatinine increased, All grades [1]: 3 (37.5) n (%) | Blood creatinine increased, Grade ¾ [1]: 0 n (%) | Cancer pain, All grades [1]: 3 (37.5) n (%) | Cancer pain, Grade ¾ [1]: 2 (25.0) n (%) | Cheilitis, All grades [1]: 3 (37.5) n (%) | Cheilitis, Grade ¾ [1]: 0 n (%) | Decreased appetite, All grades [1]: 7 (87.5) n (%) | Decreased appetite, Grade ¾ [1]: 1 (12.5) n (%) | Diarrhea, All grades [1]: 7 (87.5) n (%) | Diarrhea, Grade ¾ [1]: 1 (12.5) n (%) | Dry skin, All grades [1]: 4 (50.0) n (%) | Dry skin, Grade ¾ [1]: 0 n (%) | Dysphagia, All grades [1]: 3 (37.5) n (%) | Dysphagia, Grade ¾ [1]: 0 n (%) | Fatigue, All grades [1]: 5 (62.5) n (%) | Fatigue, Grade ¾ [1]: 1 (12.5) n (%) | Gamma-glutamyltransferase increased, All grades [1]: 2 (25.0) n (%) | Gamma-glutamyltransferase increased, Grade ¾ [1]: 0 n (%) | Haemoglobin decreased, All grades [1]: 4 (50.0) n (%) | Haemoglobin decreased, Grade ¾ [1]: 1 (12.5) n (%) | Hyperkalaemia, All grades [1]: 2 (25.0) n (%) | Hyperkalaemia, Grade ¾ [1]: 0 n (%) | Hypoalbuminaemia, All grades [1]: 4 (50.0) n (%) | Hypoalbuminaemia, Grade ¾ [1]: 1 (12.5) n (%) | Hyponatraemia, All grades [1]: 2 (25.0) n (%) | Hyponatraemia, Grade ¾ [1]: 1 (12.5) n (%) | Insomnia, All grades [1]: 4 (50.0) n (%) | Insomnia, Grade ¾ [1]: 0 n (%) | Lymphopenia, All grades [1]: 4 (50.0) n (%) | Lymphopenia, Grade ¾ [1]: 2 (25.0) n (%) | Malaise, All grades [1]: 2 (25.0) n (%) | Malaise, Grade ¾ [1]: 1 (12.5) n (%) | Nausea, All grades [1]: 7 (87.5) n (%) | Nausea, Grade ¾ [1]: 0 n (%) | Pyrexia, All grades [1]: 2 (25.0) n (%) | Pyrexia, Grade ¾ [1]: 0 n (%) | Rash, All grades [1]: 4 (50.0) n (%) | Rash, Grade ¾ [1]: 0 n (%) | Stomatitis, All grades [1]: 5 (62.5) n (%) | Stomatitis, Grade ¾ [1]: 0 n (%) | Thrombocytopenia, All grades [1]: 5 (62.5) n (%) | Thrombocytopenia, Grade ¾ [1]: 2 (25.0) n (%) | Urinary tract infection, All grades [1]: 2 (25.0) n (%) | Urinary tract infection, Grade ¾ [1]: 0 n (%) | Vomiting, All grades [1]: 4 (50.0) n (%) | Vomiting, Grade ¾ [1]: 0 n (%) | study drug-related SAE (bid dosing group, one patient): grade 4 diarrhea | patients with Grade 3 or 4 AEs (bid dosing, seven patients): 87.5% | study drug discontinuation due to AEs (bid group, one patient): 12.5% | grade 3 or 4 lymphopenia suspected to be study drug-related (bid group, two patients): 25.0% | grade 3 or 4 thrombocytopenia suspected to be study drug-related (bid group, two patients): 25.0% | deaths during the study period (including a 30-day follow-up, qd and bid): No patient died | AEs Total, All grades [2]: 3 (100.0) n (%) | AEs Total, Grade ¾ [2]: 2 (66.7) n (%) | Alanine aminotransferase increased, All grades [2]: 2 (66.7) n (%) | Alanine aminotransferase increased, Grade ¾ [2]: 0 n (%) | Blood alkaline phosphatase increased, All grades [2]: 1 (33.3) n (%) | Blood alkaline phosphatase increased, Grade ¾ [2]: 0 n (%) | Cancer pain, All grades [2]: 2 (66.7) n (%) | Cancer pain, Grade ¾ [2]: 1 (33.3) n (%) | Decreased appetite, All grades [2]: 2 (66.7) n (%) | Decreased appetite, Grade ¾ [2]: 0 n (%) | Diarrhea, All grades [2]: 2 (66.7) n (%) | Diarrhea, Grade ¾ [2]: 0 n (%) | Dysgeusia, All grades [2]: 0 n (%) | Dysgeusia, Grade ¾ [2]: 0 n (%) | Fatigue, All grades [2]: 1 (33.3) n (%) | Fatigue, Grade ¾ [2]: 0 n (%) | Leukopenia, All grades [2]: 0 n (%) | Leukopenia, Grade ¾ [2]: 0 n (%) | Lymphopenia, All grades [2]: 2 (66.7) n (%) | Lymphopenia, Grade ¾ [2]: 2 (66.7) n (%) | Nausea, All grades [2]: 3 (100.0) n (%) | Nausea, Grade ¾ [2]: 0 n (%) | Neutropenia, All grades [2]: 0 n (%) | Neutropenia, Grade ¾ [2]: 0 n (%) | Pyrexia, All grades [2]: 1 (33.3) n (%) | Pyrexia, Grade ¾ [2]: 0 n (%) | Rash, All grades [2]: 1 (33.3) n (%) | Rash, Grade ¾ [2]: 0 n (%) | Stomatitis, All grades [2]: 2 (66.7) n (%) | Stomatitis, Grade ¾ [2]: 0 n (%) | Thrombocytopenia, All grades [2]: 0 n (%) | Thrombocytopenia, Grade ¾ [2]: 0 n (%) | Vomiting, All grades [2]: 2 (66.7) n (%) | Vomiting, Grade ¾ [2]: 0 n (%) | AEs Total, All grades [3]: 3 (100.0) n (%) | AEs Total, Grade ¾ [3]: 1 (33.3) n (%) | Alanine aminotransferase increased, All grades [3]: 0 n (%) | Alanine aminotransferase increased, Grade ¾ [3]: 0 n (%) | Blood alkaline phosphatase increased, All grades [3]: 0 n (%) | Blood alkaline phosphatase increased, Grade ¾ [3]: 0 n (%) | Cancer pain, All grades [3]: 2 (66.7) n (%) | Cancer pain, Grade ¾ [3]: 0 n (%) | Decreased appetite, All grades [3]: 3 (100.0) n (%) | Decreased appetite, Grade ¾ [3]: 0 n (%) | Diarrhea, All grades [3]: 3 (100.0) n (%) | Diarrhea, Grade ¾ [3]: 0 n (%) | Dysgeusia, All grades [3]: 1 (33.3) n (%) | Dysgeusia, Grade ¾ [3]: 0 n (%) | Fatigue, All grades [3]: 2 (66.7) n (%) | Fatigue, Grade ¾ [3]: 0 n (%) | Leukopenia, All grades [3]: 1 (33.3) n (%) | Leukopenia, Grade ¾ [3]: 0 n (%) | Lymphopenia, All grades [3]: 1 (33.3) n (%) | Lymphopenia, Grade ¾ [3]: 1 (33.3) n (%) | Nausea, All grades [3]: 1 (33.3) n (%) | Nausea, Grade ¾ [3]: 0 n (%) | Neutropenia, All grades [3]: 1 (33.3) n (%) | Neutropenia, Grade ¾ [3]: 0 n (%) | Pyrexia, All grades [3]: 1 (33.3) n (%) | Pyrexia, Grade ¾ [3]: 0 n (%) | Rash, All grades [3]: 0 n (%) | Rash, Grade ¾ [3]: 0 n (%) | Stomatitis, All grades [3]: 2 (66.7) n (%) | Stomatitis, Grade ¾ [3]: 0 n (%) | Thrombocytopenia, All grades [3]: 1 (33.3) n (%) | Thrombocytopenia, Grade ¾ [3]: 1 (33.3) n (%) | Vomiting, All grades [3]: 1 (33.3) n (%) | Vomiting, Grade ¾ [3]: 0 n (%) | AEs Total, All grades [4]: 8 (100.0) n (%) | AEs Total, Grade ¾ [4]: 4 (50.0) n (%) | Alanine aminotransferase increased, All grades [4]: 0 n (%) | Alanine aminotransferase increased, Grade ¾ [4]: 0 n (%)
